From ChEMBL document CHEMBL5338809, “Fragment-Based Discovery of Azocyclic Alkyl Naphthalenesulfonamides as Keap1-Nrf2 Inhibitors for Acute Lung Injury Treatment” (J Med Chem, 2023)
≈ marks a conversion by molar mass, not a printed value. Calls of active or inactive are those of the source. No cut-off for these calls is given here.

What was measured:
[1] = AUC (0 to infinity) in Sprague-Dawley rat at 20 mg/kg, ip; format: ADME, organism-based; set-up: dose 20 mg/kg, route ip; conditions: in vivo
[2] = Apparent volume of distribution in Sprague-Dawley rat at 20 mg/kg, ip; format: ADME, organism-based; conditions: in vivo
[3] = AUC (0 to 24 hrs) in Sprague-Dawley rat at 20 mg/kg, ip; format: ADME, organism-based; set-up: dose 20 mg/kg, route ip; conditions: in vivo
[4] = Half life in Sprague-Dawley rat at 20 mg/kg, ip; format: ADME, organism-based; conditions: in vivo
[5] = Half life in Sprague-Dawley rat at 5 mg/kg, iv; format: ADME, organism-based; conditions: in vivo
[6] = MRT (0 to 24 hrs) in Sprague-Dawley rat at 20 mg/kg, ip; format: ADME, organism-based; conditions: in vivo
[7] = Cytotoxicity against mouse peritoneal macrophages assessed as reduction in cell viability incubated for 24 hrs by Cell titer-blue assay; format: toxicity, cell-based, Peritoneal macrophage
[8] = tested on: Peritoneal macrophage; test: Antiinflammatory activity in mouse peritoneal macrophages assessed as fold reduction in LPS-induced TNFalpha level at 10 uM incubated for 4 hrs by ELISA method; format: functional
[9] = Clearance in Sprague-Dawley rat at 20 mg/kg, ip; format: ADME, organism-based; conditions: in vivo
[10] = Cmax in Sprague-Dawley rat at 20 mg/kg, ip; format: ADME, organism-based; set-up: dose 20 mg/kg, route ip; conditions: in vivo
[11] = MRT (0 to 24 hrs) in Sprague-Dawley rat at 5 mg/kg, iv; format: ADME, organism-based; conditions: in vivo
[12] = Aqueous solubility of the compound in PBS at pH 7.4 at 2 mg incubated for 24 hrs by HPLC-UV analysis; format: physicochemical
[13] = MRT (0 to infinity) in Sprague-Dawley rat at 20 mg/kg, ip; format: ADME, organism-based; conditions: in vivo
[14] = AUC (0 to 24 hrs) in Sprague-Dawley rat at 5 mg/kg, iv; format: ADME, organism-based; set-up: dose 5 mg/kg, route iv; conditions: in vivo
[15] = MRT (0 to infinity) in Sprague-Dawley rat at 5 mg/kg, iv; format: ADME, organism-based; conditions: in vivo
[16] = Tmax in Sprague-Dawley rat at 20 mg/kg, ip; format: ADME, organism-based; conditions: in vivo
[17] = AUC (0 to infinity) in Sprague-Dawley rat at 5 mg/kg, iv; format: ADME, organism-based; set-up: dose 5 mg/kg, route iv; conditions: in vivo
[18] = Apparent volume of distribution in Sprague-Dawley rat at 5 mg/kg, iv; format: ADME, organism-based; conditions: in vivo, read-out: Vz
[19] = Aqueous solubility of the compound in PBS at pH 7 at 2 mg incubated for 24 hrs by HPLC-UV analysis; format: physicochemical
[20] = Aqueous solubility of the compound in PBS at pH 2 at 2 mg incubated for 24 hrs by HPLC-UV analysis; format: physicochemical
[21] = Clearance in Sprague-Dawley rat at 5 mg/kg, iv; format: ADME, organism-based; conditions: in vivo
[22] = tested on: Mus musculus; test: Antiinflammatory activity in LPS-induced C57BL/6 mouse model of […] assessed as reduction in inflammatory cell infiltrations in lung tissue at 2.5 to 10 mg/kg, ip pretreated with compound for 30 mins followed by LPS stimulation and measured after 6 hrs by hematoxylin and eosin staining method; format: functional, organism-based; conditions: dose 2.5-10 mg/kg, time 390.0 min
[23] = tested on: Mus musculus; test: Antiinflammatory activity in LPS-induced C57BL/6 mouse model of […] assessed as inhibition of IL1beta level in BALF administered intraperitoneally pretreated with compound for 30 mins followed by LPS stimulation and measured after 6 hrs by ELISA method; format: functional, organism-based; conditions: dose 2.5-10 mg/kg, route ip, time 390.0 min
[24] = biological target: Keap1/Nrf2 (Homo sapiens) (UniProt Q16236+Q14145); test: Binding affinity to human Keap1-Nrf2 protein-protein interaction assessed as dissociation constant (Kd2) incubated for 60 mins by fluorescent polarization assay
Chain of Keap1/Nrf2 (Homo sapiens) (Q14145 whole entry, looked up): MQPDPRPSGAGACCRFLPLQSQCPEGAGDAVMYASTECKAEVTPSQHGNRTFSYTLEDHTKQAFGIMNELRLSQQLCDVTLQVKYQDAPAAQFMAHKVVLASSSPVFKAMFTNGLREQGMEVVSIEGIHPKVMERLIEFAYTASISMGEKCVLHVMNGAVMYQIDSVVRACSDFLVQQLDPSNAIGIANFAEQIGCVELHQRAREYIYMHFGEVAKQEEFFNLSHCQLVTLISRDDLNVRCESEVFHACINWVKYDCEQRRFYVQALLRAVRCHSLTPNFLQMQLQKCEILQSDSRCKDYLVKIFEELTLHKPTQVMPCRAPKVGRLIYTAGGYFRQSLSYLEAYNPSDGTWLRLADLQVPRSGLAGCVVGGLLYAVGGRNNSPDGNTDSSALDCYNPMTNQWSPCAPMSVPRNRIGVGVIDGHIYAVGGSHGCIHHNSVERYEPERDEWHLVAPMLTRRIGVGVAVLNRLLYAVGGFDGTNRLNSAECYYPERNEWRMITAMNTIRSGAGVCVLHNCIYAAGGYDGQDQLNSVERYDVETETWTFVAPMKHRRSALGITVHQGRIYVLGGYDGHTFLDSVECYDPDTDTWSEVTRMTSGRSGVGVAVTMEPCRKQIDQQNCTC
Chain of Keap1/Nrf2 (Homo sapiens) (Q16236 whole entry, looked up): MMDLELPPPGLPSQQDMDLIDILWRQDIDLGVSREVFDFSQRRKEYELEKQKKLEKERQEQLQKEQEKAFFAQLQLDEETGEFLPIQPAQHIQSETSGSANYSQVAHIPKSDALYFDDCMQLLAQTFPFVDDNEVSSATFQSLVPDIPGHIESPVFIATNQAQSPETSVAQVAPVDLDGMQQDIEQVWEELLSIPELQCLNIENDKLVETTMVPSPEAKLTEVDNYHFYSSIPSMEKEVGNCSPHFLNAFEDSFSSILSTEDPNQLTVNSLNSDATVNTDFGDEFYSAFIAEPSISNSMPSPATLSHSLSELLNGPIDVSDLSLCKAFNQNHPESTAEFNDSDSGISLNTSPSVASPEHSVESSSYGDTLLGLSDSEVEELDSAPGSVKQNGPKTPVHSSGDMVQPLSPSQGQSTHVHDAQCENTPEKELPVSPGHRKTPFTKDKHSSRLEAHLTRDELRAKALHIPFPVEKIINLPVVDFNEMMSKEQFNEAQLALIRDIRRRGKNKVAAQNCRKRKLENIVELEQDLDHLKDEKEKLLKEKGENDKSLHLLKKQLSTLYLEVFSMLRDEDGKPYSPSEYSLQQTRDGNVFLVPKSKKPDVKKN

[25] = tested on: Mus musculus; test: Antiinflammatory activity in LPS-induced C57BL/6 mouse model of […] assessed as inhibition of TNFalpha expression in lung tissue at 2.5 to 10 mg/kg, ip pretreated with compound for 30 mins followed by LPS stimulation and measured after 6 hrs by qRT-PCR analysis; format: functional, organism-based; conditions: dose 2.5-10 mg/kg, time 390.0 min
[26] = tested on: Mus musculus; test: Antiinflammatory activity in LPS-induced C57BL/6 mouse model of […] assessed as inhibition of IL6 level in BALF administered intraperitoneally pretreated with compound for 30 mins followed by LPS stimulation and measured after 6 hrs by ELISA method; format: functional, organism-based; conditions: dose 2.5-10 mg/kg, route ip, time 390.0 min
[27] = tested on: Mus musculus; test: Antiinflammatory activity in LPS-induced C57BL/6 mouse model of […] assessed as inhibition of IL1beta expression in lung tissue at 2.5 to 10 mg/kg, ip pretreated with compound for 30 mins followed by LPS stimulation and measured after 6 hrs by qRT-PCR analysis; format: functional, organism-based; conditions: dose 2.5-10 mg/kg, time 390.0 min
[28] = tested on: Mus musculus; test: Antiinflammatory activity in LPS-induced C57BL/6 mouse model of […] assessed as reduction in bleeding points in lung tissue at 2.5 to 10 mg/kg, ip pretreated with compound for 30 mins followed by LPS stimulation and measured after 6 hrs by hematoxylin and eosin staining method; format: functional, organism-based; conditions: dose 2.5-10 mg/kg, time 390.0 min
[29] = tested on: Mus musculus; test: Antiinflammatory activity in LPS-induced C57BL/6 mouse model of […] assessed as Nrf2 nuclear translocation in lung tissue at 2.5 to 10 mg/kg, ip pretreated with compound for 30 mins followed by LPS stimulation and measured after 6 hrs by Western blotting analysis; format: functional, organism-based; conditions: dose 2.5-10 mg/kg, time 390.0 min
[30] = tested on: Mus musculus; test: Antiinflammatory activity in LPS-induced C57BL/6 mouse model of […] assessed as inhibition of IL6 expression in lung tissue at 2.5 to 10 mg/kg, ip pretreated with compound for 30 mins followed by LPS stimulation and measured after 6 hrs by qRT-PCR analysis; format: functional, organism-based; conditions: dose 2.5-10 mg/kg, time 390.0 min
[31] = tested on: Mus musculus; test: Antiinflammatory activity in LPS-induced C57BL/6 mouse model of […] assessed as reduction in congestion in lung tissue at 2.5 to 10 mg/kg, ip pretreated with compound for 30 mins followed by LPS stimulation and measured after 6 hrs by hematoxylin and eosin staining method; format: functional, organism-based; conditions: dose 2.5-10 mg/kg, time 390.0 min
[32] = tested on: Mus musculus; test: Antiinflammatory activity in LPS-induced C57BL/6 mouse model of […] assessed as inhibition of TNFalpha level in BALF administered intraperitoneally pretreated with compound for 30 mins followed by LPS stimulation and measured after 6 hrs by ELISA method; format: functional, organism-based; conditions: dose 2.5-10 mg/kg, route ip, time 390.0 min
[33] = tested on: Peritoneal macrophage; test: Antiinflammatory activity in mouse peritoneal macrophages assessed as reduction in LPS-induced IL6 level at 10 uM incubated for 4 hrs by ELISA method; format: functional, cell-based
[34] = Oral bioavailability in Sprague-Dawley rat; format: ADME, organism-based; conditions: in vivo

Molecule `COc1ccc(S(=O)(=O)N(CC(N)=O)c2ccc(N(CC(N)=O)S(=O)(=O)c3ccc(NC(=O)[C@H]4CCN4)cc3)c3ccccc23)cc1` [listing 1 of 2 here] has an AUC(0-inf) [1] of 11.2 µg·h/mL, a Vz [2] of 16.24474 L/kg and an AUC(0-t) [3] of 11.2 µg·h/mL. The half-life [4] was 5.75 h, the half-life [5] was 12.7 h and the MRT last [6] was 1.75 h. For the same molecule, the CC50 at 24 h [7] was > 100 µM, the “fold change (FC)” value [8] was “<=0.5” and the CL/F [9] was 1.91 L/h/kg. For the same molecule, the Cmax [10] was 8.43 µg/mL, the MRT last [11] was 2.83 h and the solubility at 24 h [12] was 0.216 mg/mL (≈ 318 µM). For the same molecule, the MRT inf [13] was 1.97 h, the AUC(0-t) [14] was 1.39 µg·h/mL and the MRT inf [15] was 9.67 h. It also gave a Tmax [16] of 0.38 h, an AUC(0-inf) [17] of 1.59 µg·h/mL and a Vd [18] of 60.5 L/kg. It also gave a solubility at 24 h [19] of 0.404 mg/mL (≈ 593 µM), a solubility at 24 h [20] of 0.601 mg/mL (≈ 883 µM) and a clearance [21] of 3.45 L/h/kg.

For `COc1ccc(S(=O)(=O)N(CC(N)=O)c2ccc(N(CC(N)=O)S(=O)(=O)c3ccc(NC(=O)[C@H]4CCN4)cc3)c3ccccc23)cc1` [listing 2 of 2 here], the Activity [22] was “Active”, the inhibition [23] was “Dose-Dependent Effect” and the K [24] was 220 nM. The inhibition [25] was “Active”, the inhibition [26] was “Dose-Dependent Effect” and the inhibition [27] was “Active”. For the same molecule, the Activity [28] was “Active”, the Activity [29] was “Active” and the inhibition [30] was “Active”. For the same molecule, the Activity [31] was “Active”, the inhibition [32] was “Dose-Dependent Effect” and the Activity [33] was “Active”.

Work on `CCN1CCN(CCC(=O)Nc2ccc(S(=O)(=O)N(CC(N)=O)c3ccc(N(CC(N)=O)S(=O)(=O)c4ccc(OC)cc4)c4ccccc34)cc2)CC1.Cl` yielded a bioavailability [34] of 20%.
